This is an account of results in PMC7304070 (Journal of the American Chemical Society, 2020).

Series [1] is described as follows: Circular dichroism helicity. The class given is physicochemical. The note with it: for Helicity, Stabilized (S): CD, 10 μM in 1:1 water:acetonitrile, molar ellipticity at 222 nm, stabilized peptide. Background: CD spectra are sensitive to the conformation of chiral molecules.
Series [2] has as its target MDM2 truncate (residues 10–118) (Homo sapiens, UniProt Q00987). Description: Bio-layer interferometry. The class given is binding. The note with it: non-stabilized / stabilized Kd in solution (fold improvement upon stabilization). Background: Biolayer interferometry detects binding as a change in optical thickness at a sensor tip.
A further series has as its target MDM2-GST (Homo sapiens, UniProt Q00987). The experiment in a line: Bacterial surface display. The settings on record: for BSD Kd Ratio (NS/S): non-stabilized / stabilized Kd on bacterial surface. It is filed as binding.

Sequence of MDM2-GST (Q00987 whole entry): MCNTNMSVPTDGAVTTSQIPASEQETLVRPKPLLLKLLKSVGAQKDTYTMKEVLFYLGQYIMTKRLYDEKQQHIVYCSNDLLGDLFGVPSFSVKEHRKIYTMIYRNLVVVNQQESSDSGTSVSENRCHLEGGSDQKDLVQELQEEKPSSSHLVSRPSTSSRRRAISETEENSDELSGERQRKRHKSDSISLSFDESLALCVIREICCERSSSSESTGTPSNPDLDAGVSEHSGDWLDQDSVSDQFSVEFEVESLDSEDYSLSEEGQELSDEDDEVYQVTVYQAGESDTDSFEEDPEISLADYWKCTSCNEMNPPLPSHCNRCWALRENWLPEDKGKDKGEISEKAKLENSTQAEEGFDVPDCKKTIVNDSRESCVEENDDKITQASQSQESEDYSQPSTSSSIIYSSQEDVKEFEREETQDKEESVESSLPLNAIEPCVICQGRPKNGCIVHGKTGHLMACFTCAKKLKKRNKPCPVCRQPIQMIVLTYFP
Sequence of MDM2 truncate (residues 10–118) (Q00987 10-118): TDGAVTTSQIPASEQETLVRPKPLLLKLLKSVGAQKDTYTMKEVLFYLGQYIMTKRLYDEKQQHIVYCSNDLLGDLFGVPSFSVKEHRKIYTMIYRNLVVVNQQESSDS

On to “QTFXDLWRLLXQN (sidechain bridge or staple) [SPD-M0-E(0)]”, for which the “Helicity, Stabilized (S)” value in series [1] is recorded as 41%.
With “VLSFXDYWNLLXGS (sidechain bridge or staple) [SPD-M3-V1]”, in series [2], the “BLI Kd Ratio (NS/S)” value stood at 9.4. The “BSD Kd Ratio (NS/S)” value on MDM2-GST is on record as 6.6.
For the sequence “GGTFXGYWADLXAF (sidechain bridge or staple) [SPD-M3-G1]”, in series [2], the “BLI Kd Ratio (NS/S)” value is 4.1. Further, in series [1], the “Helicity, Stabilized (S)” value is on record as 18%. The “Helicity Ratio (S/NS)” value in series [1] (stabilized / non-stabilized helicity) is 1.1. Also, the “improvement in affinity over the starting sequence SPD-M0-E(−2)” value on MDM2-GST (bacterial surface, stabilized, after 3 rounds of sorting, n = 3 independent trials of duplicates) is on record as around 5 fold. The “BSD Kd Ratio (NS/S)” value on MDM2-GST amounted to 1.4.
As for “QTFXDLWRLLXEN (sidechain bridge or staple) [SPD-M0-E(−1)]”, the “Helicity, Stabilized (S)” value in series [1] came out at 40%.
On to “ETAXDLWRLLXEN (sidechain bridge or staple) [SPD-M0-E(−2)-F19A]”, for which the “Helicity, Stabilized (S)” value in series [1] is 50%. Moreover, the “binding as displayed on the bacterial cell surface” value at MDM2-GST (negative controls, Figure S1) is recorded as “did not exhibit measurable binding”.
Regarding “ETFXDLWRLLXEN (sidechain bridge or staple) [SPD-M0-E(−2)]”, in series [1], the “Helicity, Stabilized (S)” value is 53%.
